Test results taken from ChEMBL document CHEMBL1201862, “PubChem BioAssay data set” (2004).
Active and inactive are the calls of the source.

Assays:
[1] = A549 cell cytotoxicity, dose response, cytotoxicity control, plate reader, cherry-pick, antagonist series (AID 743412); type: functional, cell-based
[2] = toxicity toward HepG2 liver cells – cell-based, plate reader, cherry-pick, antagonist series, cytotoxicity control, dose response (AID 743416); type: functional
[3] = microbe, parasite or virus in culture; type: functional; conditions: Mycobacterium tuberculosis
[4] = target: T1, Streptokinase A (Streptococcus pyogenes serotype M1, UniProt P10520); experiment: viability-normalized secreted streptokinase activity reduction – plasminogen activation absorbance, OD405, dose response (AID 1914); type: functional, Streptococcus pyogenes M1 GAS;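 note: secreted streptokinase activity via plasminogen activation per viability signal from cell pellet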
T1 sequence (P10520 whole entry): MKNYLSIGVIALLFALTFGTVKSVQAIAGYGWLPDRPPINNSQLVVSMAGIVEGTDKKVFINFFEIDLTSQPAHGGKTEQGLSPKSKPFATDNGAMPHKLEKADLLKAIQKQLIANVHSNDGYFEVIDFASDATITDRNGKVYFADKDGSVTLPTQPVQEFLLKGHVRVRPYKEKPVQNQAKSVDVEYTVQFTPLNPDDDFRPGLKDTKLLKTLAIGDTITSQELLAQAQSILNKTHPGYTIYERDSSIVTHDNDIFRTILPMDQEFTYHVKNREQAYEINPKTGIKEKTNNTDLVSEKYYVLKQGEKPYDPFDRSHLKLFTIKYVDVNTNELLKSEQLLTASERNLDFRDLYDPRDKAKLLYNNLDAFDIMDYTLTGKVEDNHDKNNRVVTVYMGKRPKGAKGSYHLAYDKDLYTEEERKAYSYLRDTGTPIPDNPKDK

[5] = test system: Streptococcus sp. 'group A'; experiment: Streptococcus pyogenes SK(-)GAS viability under kanamycin – luminescence, BacTiterGlo, confirmation, counter-screen for streptokinase expression inhibitor project, dose response (AID 1900); type: functional, organism-based
[6] = test system: H9c2; experiment: cells; type: functional, cell-based; conditions: Rattus norvegicus, H9c2, Myocardium;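 note: confirmatory concentration-response retest of ultra-high-throughput screening hits for modulation of myocardial damage; cell death induced by hydrogen peroxide oxidative stress; compound pretreatment for 60 min then peroxide exposure for 2 h; potency is for protecting the cells against peroxide damage rather than for killing them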
[7] = test system: Streptococcus; experiment: GAS UMAA2166 growth inhibition – luminescence, BacTiterGlo, counter-screen for streptokinase expression inhibitor project, dose response (AID 1915); type: functional, organism-based;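 note: potency for reduction of bacterial viability or growth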
[8] = target: T2, Protein skinhead-1 (Caenorhabditis elegans, UniProt P34707); type: functional
T2 sequence (P34707 whole entry): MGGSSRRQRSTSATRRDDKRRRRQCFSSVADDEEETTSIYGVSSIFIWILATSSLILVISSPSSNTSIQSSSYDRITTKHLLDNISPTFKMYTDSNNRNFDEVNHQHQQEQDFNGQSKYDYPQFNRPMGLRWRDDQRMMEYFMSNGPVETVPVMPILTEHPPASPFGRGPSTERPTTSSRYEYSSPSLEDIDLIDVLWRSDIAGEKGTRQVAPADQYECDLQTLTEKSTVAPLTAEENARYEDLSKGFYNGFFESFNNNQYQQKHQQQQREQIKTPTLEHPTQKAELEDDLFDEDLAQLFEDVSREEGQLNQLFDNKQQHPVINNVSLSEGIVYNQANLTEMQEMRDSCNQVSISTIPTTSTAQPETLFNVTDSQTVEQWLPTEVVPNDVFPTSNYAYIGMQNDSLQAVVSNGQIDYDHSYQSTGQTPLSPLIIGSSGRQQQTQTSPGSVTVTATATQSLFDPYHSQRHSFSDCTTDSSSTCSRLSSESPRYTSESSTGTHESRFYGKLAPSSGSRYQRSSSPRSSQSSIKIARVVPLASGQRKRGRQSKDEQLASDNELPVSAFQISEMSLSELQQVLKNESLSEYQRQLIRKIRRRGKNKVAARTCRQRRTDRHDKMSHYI

[9] = non-specific 3'UTR reporter inhibition in Clone20-Shn3RL – cell-based, Renilla luciferase, cherry-picked, counter-screen for Shn3 inhibitor project, dose response (AID 624133); type: functional
[10] = reduction of Shn3 3'UTR-driven luciferase in osteoblasts – cell-based, Clone20 osteoblasts, firefly luciferase, cherry-picked, dose response (AID 624132); type: functional;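 note: firefly luciferase luminescence from reporter carrying the Shn3 3'UTR in osteoblasts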
[11] = loss of viability in HepG2 cells – cell-based, CellTiter-Glo, cherry-picked, cytotoxicity control for Shn3 inhibitor project, dose response (AID 624134); type: functional
[12] = target: Nonstructural protein 1 (Influenza A virus, UniProt Q194T2); type: functional, Influenza A virus (A/California/07/2009(H1N1))
Nonstructural protein 1, sequence (Q194T2 whole entry): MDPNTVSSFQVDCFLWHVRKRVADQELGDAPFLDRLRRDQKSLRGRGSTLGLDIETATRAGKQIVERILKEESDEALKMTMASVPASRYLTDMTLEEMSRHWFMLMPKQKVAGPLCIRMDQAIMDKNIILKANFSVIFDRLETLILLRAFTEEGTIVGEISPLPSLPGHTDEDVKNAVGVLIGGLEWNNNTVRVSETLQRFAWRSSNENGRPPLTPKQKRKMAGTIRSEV

[13] = target: Cytochrome P450 2C19 (Homo sapiens, UniProt P33261); experiment: Cytochrome panel assay with activity outcomes. Panel member name: p450-cyp2c19 Compounds with AC50 equal or less than 10 uM are considered active; type: functional; conditions: read-out: AC50
Cytochrome P450 2C19, sequence (P33261 whole entry): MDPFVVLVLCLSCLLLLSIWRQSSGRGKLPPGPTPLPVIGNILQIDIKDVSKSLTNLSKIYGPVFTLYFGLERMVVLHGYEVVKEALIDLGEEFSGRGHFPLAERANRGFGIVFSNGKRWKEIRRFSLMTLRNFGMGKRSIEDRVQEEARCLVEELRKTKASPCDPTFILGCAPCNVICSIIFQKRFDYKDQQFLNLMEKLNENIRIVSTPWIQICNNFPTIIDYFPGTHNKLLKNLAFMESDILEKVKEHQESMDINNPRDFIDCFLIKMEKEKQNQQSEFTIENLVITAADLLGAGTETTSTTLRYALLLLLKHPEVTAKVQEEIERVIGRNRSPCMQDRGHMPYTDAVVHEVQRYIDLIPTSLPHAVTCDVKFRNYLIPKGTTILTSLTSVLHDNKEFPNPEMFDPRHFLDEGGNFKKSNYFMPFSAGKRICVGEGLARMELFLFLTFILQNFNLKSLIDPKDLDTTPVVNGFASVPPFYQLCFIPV

[14] = target: Voltage-dependent T-type calcium channel subunit alpha-1H (Homo sapiens, UniProt O95180); type: functional;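 note: channel activity triggered by adding a high calcium stimulation buffer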
Voltage-dependent T-type calcium channel subunit alpha-1H, sequence (O95180 whole entry): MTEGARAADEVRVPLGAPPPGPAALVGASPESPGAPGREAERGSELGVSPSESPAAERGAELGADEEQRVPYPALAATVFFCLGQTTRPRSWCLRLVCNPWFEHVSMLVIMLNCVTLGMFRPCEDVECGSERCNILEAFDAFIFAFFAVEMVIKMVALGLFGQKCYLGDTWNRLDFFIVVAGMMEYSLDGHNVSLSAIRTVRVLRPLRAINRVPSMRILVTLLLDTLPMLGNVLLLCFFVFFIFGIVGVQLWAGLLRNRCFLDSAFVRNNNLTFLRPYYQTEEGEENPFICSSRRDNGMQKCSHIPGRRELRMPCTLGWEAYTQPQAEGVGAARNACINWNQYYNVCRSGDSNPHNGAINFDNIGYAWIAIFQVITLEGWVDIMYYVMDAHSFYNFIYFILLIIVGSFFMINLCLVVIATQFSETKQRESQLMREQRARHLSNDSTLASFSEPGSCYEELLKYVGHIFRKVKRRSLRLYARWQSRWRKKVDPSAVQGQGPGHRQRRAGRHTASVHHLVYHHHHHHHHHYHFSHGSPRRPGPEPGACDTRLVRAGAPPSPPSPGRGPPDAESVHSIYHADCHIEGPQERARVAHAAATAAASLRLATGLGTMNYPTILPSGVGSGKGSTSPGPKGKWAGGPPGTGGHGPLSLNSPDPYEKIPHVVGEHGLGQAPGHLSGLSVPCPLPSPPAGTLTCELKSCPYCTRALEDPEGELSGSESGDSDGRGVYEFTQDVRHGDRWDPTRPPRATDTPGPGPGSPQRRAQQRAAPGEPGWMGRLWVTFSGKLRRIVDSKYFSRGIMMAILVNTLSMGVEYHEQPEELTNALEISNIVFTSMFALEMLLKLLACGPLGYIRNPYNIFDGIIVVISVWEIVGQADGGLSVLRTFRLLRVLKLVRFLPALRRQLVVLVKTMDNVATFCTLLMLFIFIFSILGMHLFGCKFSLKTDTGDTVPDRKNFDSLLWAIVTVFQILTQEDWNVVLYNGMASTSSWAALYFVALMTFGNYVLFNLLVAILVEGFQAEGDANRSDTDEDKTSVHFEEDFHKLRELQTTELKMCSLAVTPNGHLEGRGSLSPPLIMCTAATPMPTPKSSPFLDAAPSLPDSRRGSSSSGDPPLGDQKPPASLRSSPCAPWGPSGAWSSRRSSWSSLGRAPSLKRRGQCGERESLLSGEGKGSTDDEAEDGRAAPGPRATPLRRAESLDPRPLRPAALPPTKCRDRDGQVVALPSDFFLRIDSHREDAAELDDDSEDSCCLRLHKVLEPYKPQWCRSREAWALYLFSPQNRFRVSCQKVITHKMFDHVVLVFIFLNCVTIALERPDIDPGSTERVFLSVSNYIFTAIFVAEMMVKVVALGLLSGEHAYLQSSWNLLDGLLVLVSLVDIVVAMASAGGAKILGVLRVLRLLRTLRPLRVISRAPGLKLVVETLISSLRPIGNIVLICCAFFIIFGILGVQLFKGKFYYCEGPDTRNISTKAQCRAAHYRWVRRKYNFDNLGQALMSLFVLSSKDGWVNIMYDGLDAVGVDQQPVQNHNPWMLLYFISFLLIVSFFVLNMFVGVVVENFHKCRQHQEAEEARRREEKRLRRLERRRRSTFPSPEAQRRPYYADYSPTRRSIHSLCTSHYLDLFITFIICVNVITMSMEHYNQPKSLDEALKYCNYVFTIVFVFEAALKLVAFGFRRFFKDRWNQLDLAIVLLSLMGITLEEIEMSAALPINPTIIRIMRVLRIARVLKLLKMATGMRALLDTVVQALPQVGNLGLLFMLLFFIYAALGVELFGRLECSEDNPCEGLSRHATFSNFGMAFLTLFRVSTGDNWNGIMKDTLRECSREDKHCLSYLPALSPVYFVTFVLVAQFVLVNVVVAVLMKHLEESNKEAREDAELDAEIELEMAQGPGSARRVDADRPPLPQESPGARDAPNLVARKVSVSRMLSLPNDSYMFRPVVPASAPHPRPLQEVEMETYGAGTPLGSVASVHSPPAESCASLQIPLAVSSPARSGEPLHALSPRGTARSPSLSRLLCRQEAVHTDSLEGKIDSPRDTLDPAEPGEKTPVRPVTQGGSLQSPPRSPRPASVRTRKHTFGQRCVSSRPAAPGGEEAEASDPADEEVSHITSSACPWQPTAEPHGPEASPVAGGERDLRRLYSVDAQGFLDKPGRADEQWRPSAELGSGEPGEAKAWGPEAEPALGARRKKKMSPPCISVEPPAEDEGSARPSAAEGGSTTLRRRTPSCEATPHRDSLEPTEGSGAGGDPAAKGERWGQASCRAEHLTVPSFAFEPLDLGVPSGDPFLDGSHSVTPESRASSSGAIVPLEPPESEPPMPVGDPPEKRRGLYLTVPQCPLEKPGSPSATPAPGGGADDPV

[15] = test system: INS1; experiment: INS-1E survival protection against cytokine death – cell-based, luminescence, retest, dose response (AID 449756); type: functional; conditions: Rattus norvegicus;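 note: cell death triggered by IL-1 beta plus TNF-alpha plus IFN-gamma mixture; protective hits raise ATP signal compared with cytokine alone wells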
[16] = Luminescence Cell-Based Dose Retest to Confirm Inhibitors of Cancer Stem Cells. [Related pubchem assays (depositor defined):AID2717, AID2721]; type: functional; conditions: Homo sapiens

For O=C(c1ccc2c(c1)OCCO2)C1CCN(S(=O)(=O)c2ccc(F)cc2)CC1, the AC50 [1] was > 52 µM (inactive) and the AC50 [2] was > 52 µM (inactive).

In the case of COc1ccc(-c2nc(NC(=O)c3[nH]c(C)c(C(C)=O)c3C)sc2C)cc1, the CC50 [3] is reported as > 40 µM (active).

With CC(OC(=O)Cc1nnc(O)c2ccccc12)C(=O)Nc1ccc(Cl)cn1 (centres undefined) the EC50 [4] was > 150 µM (not active), the EC50 [5] was 9.99 µM (active) and the IC50 [6] was 7.17 µM (active). The EC50 [7] was 23.1 µM (active).

In the case of O=C(Nc1nc2c(s1)CCc1ccccc1-2)c1ccco1, the IC50 [8] is reported as > 100 µM (inactive).

For Fc1ccc2[nH]c3c(NCc4ccccc4)ncnc3c2c1, the AC50 [9] was 13.1 µM (active), the CC50 [3] was > 40 µM (active) and the AC50 [10] was 3.09 µM (active). For the same molecule, the AC50 [11] was 30.1 µM (active).

With O=[N+]([O-])c1ccc(Nc2ccccc2)cc1 the IC50 [8] was 12.7 µM (active).

For Cc1ccc(NC(=O)CSc2n[nH]c(-c3ccccn3)n2)cc1, the IC50 [12] was 6.74 µM (active).

For O=C(Nc1ccccc1)N1CCCC(c2nc(-c3ccc(F)cc3)no2)C1 (centres undefined), the AC50 [13] was 39.8 µM (inconclusive) and the EC50 [14] was 1.52 µM (active).

For S=C(NC1CCCCC1)N(CCc1nc2ccccc2[nH]1)C1CCCC1, the EC50 [14] was 5.18 µM (active).

With Cc1[nH]c2ccccc2c1C1C(c2ccccc2)=NN=C(C(C)C)N1O (centres undefined) the EC50 [14] was 16.1 µM (active).

In the case of CC(c1ccccc1)N1C(=O)c2cccnc2C1=O (centres undefined), the IC50 [8] is reported as > 100 µM (inactive).

With CCOC(=O)N1CCN(S(=O)(=O)c2ccc(C(=O)NNc3nc4cc(C)cc(C)c4s3)cc2)CC1 the AC50 [15] was 3.67 µM (active), the IC50 [12] was > 100 µM (active) and the AC50 [16] was 3.69 µM (active).

For COC(=O)[C@@]12CCCCN1[C@H](c1ccc(-c3cc(C(C)=O)cs3)cc1)[C@H]1C(=O)N(C)C(=O)[C@H]12, the IC50 [6] was > 79 µM (inactive).

For CC(Sc1nnc(NC2CCCCC2)s1)C(=O)Nc1ccc2c(c1)C(=O)c1ccccc1C2=O (centres undefined), the CC50 [3] was 29.7 µM (active).

In the case of CCCn1c(=O)c(C(=O)NCCc2ccc(Cl)cc2)c(O)c2ccccc21, the IC50 [6] is reported as > 79 µM (inactive).

For O=C(CSC(=S)N1CCCC1)c1cc(Br)cc(Br)c1O, the CC50 [3] was > 40 µM (active).

In the case of Cc1ccc(N(C)C(=O)Oc2cccc3ccc(C)nc23)cc1, the EC50 [14] is reported as 12.3 µM (active).

With O=C(CCn1c(=O)oc2ccccc21)N(Cc1ccccc1)c1ccccc1 the IC50 [6] was > 79 µM (inactive).

For CCN(CC)S(=O)(=O)c1ccc(N(C)CCc2ccc(OC)c(OC)c2)nc1, the IC50 [8] was > 100 µM (inactive).
